The text below walks through data of PubChem BioAssay AID1845197 (Molecular Pharmacology Branch, DTP, NCI, 2023).

“And” between values parts separate entries of the source, which are not always exact repeats. Equal values may be shown once.

The assay relates to 349418-098-R tumor spheroid viability. As to the kind of experiment: Anticancer human tumor 349418-098-R patient-derived lung adenocarcinoma cell line growth inhibition. As to conditions: spheroids with HUVEC and MSC; for viability, T/C: stronger effect = lower value. Put shortly:
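Complex tumor spheroids combined malignant cells with endothelial cells and mesenchymal stem cells. DNA-damaging drugs and DNA repair inhibitors were tested alone and in combination, at half-log dilutions down from clinical Cmax (top 10 microM if Cmax unknown), 0.25% DMSO final.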

[1] abbreviates: curve of first compound, second compound 0.003 µM.
[2] abbreviates: second compound 0.003 µM, first compound 0.0316 µM.
The mark [3] stands for this setting: second compound 0.003 µM, first compound 0.1 µM.
Where [4] appears, read: second compound 0.003 µM, first compound 0.316 µM.
[5] abbreviates: second compound 0.003 µM, first compound 1 µM.
Where [6] appears, read: second compound 0.003 µM, first compound 3.16 µM.
The mark [7] stands for this setting: second compound 0.003 µM, first compound 10 µM.
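Note: spheroids exposed to compound for 7 days before measurement.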
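Throughout, for viability, T/C: percent of vehicle control viability with 100% = DMSO-treated spheroids.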

In the case of `Cc1cc(C)c(CNC(=O)c2cc(-c3ccc(CN4CCOCC4)cc3)cc3c2cnn3C2CCCC2)c(=O)[nH]1` + COc1cc2c(cc1O)CCNC21CSC2c3c(OC(C)=O)c(C)c4c(c3C(COC1=O)N1C(O)C3Cc5cc(C)c(OC)c(O)c5C(C21)N3C)OCO4, the IC50 is, setting by setting: (curve of first compound, second compound 30 pM) over 10 µM; (curve of first compound, second compound 94.9 pM) over 10 µM; (curve of first compound, second compound 0.0003 µM) over 10 µM; (curve of first compound, second compound 0.000949 µM) under 0.0316 µM; under setting [1], under 0.0316 µM. The viability, T/C was 103% (second compound 30 pM, first compound 0.0316 µM); 97.3% (second compound 30 pM, first compound 0.1 µM); 105% (second compound 30 pM, first compound 0.316 µM); 119% (second compound 30 pM, first compound 1 µM); 114% (second compound 30 pM, first compound 3.16 µM); 104% (second compound 30 pM, first compound 10 µM). For the same compound, the viability, T/C is, setting by setting: (second compound 94.9 pM, first compound 0.0316 µM) 104%; (second compound 94.9 pM, first compound 0.1 µM) 97.9%; (second compound 94.9 pM, first compound 0.316 µM) 102%; (second compound 94.9 pM, first compound 1 µM) 118%; (second compound 94.9 pM, first compound 3.16 µM) 115%; (second compound 94.9 pM, first compound 10 µM) 77.7%. The viability, T/C (second compound 0.0003 µM, first compound 0.0316 µM) was 98.4%; the viability, T/C (second compound 0.0003 µM, first compound 0.1 µM) is 90.4%; the viability, T/C (second compound 0.0003 µM, first compound 0.316 µM) was 98.1%; the viability, T/C (second compound 0.0003 µM, first compound 1 µM) is 100%; the viability, T/C (second compound 0.0003 µM, first compound 3.16 µM) is 98.6%; the viability, T/C (second compound 0.0003 µM, first compound 10 µM) is 72.6%. For the same compound, the viability, T/C runs as follows: (second compound 0.000949 µM, first compound 0.0316 µM) 0.39%; (second compound 0.000949 µM, first compound 0.1 µM) 0.81%; (second compound 0.000949 µM, first compound 0.316 µM) 0.5%; (second compound 0.000949 µM, first compound 1 µM) 0.48%; (second compound 0.000949 µM, first compound 3.16 µM) 0.45%; (second compound 0.000949 µM, first compound 10 µM) 0.53%. Moreover, the viability, T/C under setting [2] was 1.51%; the viability, T/C under setting [3] is 1.6%; the viability, T/C under setting [4] was 1.61%; the viability, T/C under setting [5] was 1.74%; the viability, T/C under setting [6] was 2.05%; the viability, T/C under setting [7] is 0.75%.
Turning to `[2H]c1nc(C)nc([2H])c1-c1cc(NC[C@@H](C)c2cccc3c(C(=O)NC)ccnc23)ncn1`, the viability, T/C was 109% and 102% and 93.6% (compound 0.0316 µM); 109% and 103% and 105% (compound 0.1 µM); 106% and 101% and 113% (compound 0.316 µM); 105% (2×) and 107% (compound 1 µM); 114% and 103% (2×) (compound 3.16 µM); 112% and 102% and 105% (compound 10 µM). Besides, for the setting “curve of compound”, the IC50 was over 10 µM.
Turning to `CC[C@@]1(O)C(=O)OCc2c1cc1n(c2=O)Cc2cc3c(CN(C)C)c(O)ccc3nc2-1`, the viability, T/C is 99.8% [middle of 10 runs] (compound 0.003 µM); 97.5% [middle of 10 runs] (compound 0.00949 µM); 77.6% [middle of 10 runs] (compound 0.03 µM); 19.6% [middle of 10 runs] (compound 0.0949 µM); 4.75% [middle of 10 runs] (compound 0.3 µM). For the same compound, the IC50 runs as follows: (compound alone, run of 10/17/2019) 58.3 nM [middle of 5 runs]; (compound alone, run of 10/25/2019) 43.3 nM [middle of 5 runs].
In the case of `[2H]c1nc(C)nc([2H])c1-c1cc(NC[C@@H](C)c2cccc3c(C(=O)NC)ccnc23)ncn1` + CC[C@@]1(O)C(=O)OCc2c1cc1n(c2=O)Cc2cc3c(CN(C)C)c(O)ccc3nc2-1, the IC50 was over 10 µM under setting [1]; over 10 µM (curve of first compound, second compound 0.00949 µM); 7.51 µM (curve of first compound, second compound 0.03 µM); under 0.0316 µM (curve of first compound, second compound 0.0949 µM); under 0.0316 µM (curve of first compound, second compound 0.3 µM). Moreover, the viability, T/C runs as follows: under setting [2], 96.3%; under setting [3], 103%; under setting [4], 97.9%; under setting [5], 105%; under setting [6], 102%; under setting [7], 102%. Also, the viability, T/C reads like this: (second compound 0.00949 µM, first compound 0.0316 µM) 93.7%; (second compound 0.00949 µM, first compound 0.1 µM) 101%; (second compound 0.00949 µM, first compound 0.316 µM) 98.5%; (second compound 0.00949 µM, first compound 1 µM) 100%; (second compound 0.00949 µM, first compound 3.16 µM) 102%; (second compound 0.00949 µM, first compound 10 µM) 97.2%. For the same compound, the viability, T/C (second compound 0.03 µM, first compound 0.0316 µM) is 78.9%; the viability, T/C (second compound 0.03 µM, first compound 0.1 µM) is 67.9%; the viability, T/C (second compound 0.03 µM, first compound 0.316 µM) is 75.5%; the viability, T/C (second compound 0.03 µM, first compound 1 µM) is 71.1%; the viability, T/C (second compound 0.03 µM, first compound 3.16 µM) was 53.9%; the viability, T/C (second compound 0.03 µM, first compound 10 µM) was 48.7%. Besides, the viability, T/C runs as follows: (second compound 0.0949 µM, first compound 0.0316 µM) 13.9%; (second compound 0.0949 µM, first compound 0.1 µM) 15.4%; (second compound 0.0949 µM, first compound 0.316 µM) 11.2%; (second compound 0.0949 µM, first compound 1 µM) 13.1%; (second compound 0.0949 µM, first compound 3.16 µM) 7.36%; (second compound 0.0949 µM, first compound 10 µM) 6.4%. In addition, the viability, T/C runs as follows: (second compound 0.3 µM, first compound 0.0316 µM) 4.73%; (second compound 0.3 µM, first compound 0.1 µM) 5.56%; (second compound 0.3 µM, first compound 0.316 µM) 4.91%; (second compound 0.3 µM, first compound 1 µM) 4.06%; (second compound 0.3 µM, first compound 3.16 µM) 4.8%; (second compound 0.3 µM, first compound 10 µM) 3.56%.

A word on the IC50: it is the concentration that inhibits the measured activity by half. What is called viability, T/C is the ratio of treated to control.
